Measured values: article PMC7113582, “Peptide Self-Assembly Is Linked to Antibacterial, but Not Antifungal, Activity of Histatin 5 Derivatives” (mSphere, 2020)

Assays:
[1] = Self-assembly observed by transmission electron microscopy; assay type: physicochemical; details: 1 mg/ml in water, heated 50 min at 90°C, cooled gradually to 25°C overnight; negative stain TEM
Method: Lyophilized powders of each of the peptides (Genscript Biotech, USA) were dissolved in ultrapure water (BioInd, Israel) to a concentration of 1 mg/ml and heated for 50 min at 90°C, allowing the peptides to reach the monomeric state, and were then allowed to cool gradually to 25°C overnight. This treatment facilitated the self-assembly and nanostructure formation of L7F but not dhvar2.
TEM imaging was performed by applying 10-μl samples to 400-mesh copper grids covered by a carbon-stabilized Formvar film (SPI, West Chester, PA, USA). The samples were allowed to adsorb for 2 min before excess fluid was blotted off. Negative staining was then achieved by depositing 10 μl of 2% uranyl acetate on the grid for 2 min before blotting off excess fluid. Micrographs were obtained using a Tecnai 12 electron microscope (FEI, Tokyo, Japan) operating at 120 kV.

S. epidermidis = assay: Bacterial kinetic growth inhibition analysis, S. epidermidis; assay type: cell-based, Staphylococcus epidermidis
[2] = test system: E. coli bacteria (ATCC 25922); assay: Bacterial kinetic growth inhibition analysis, E. coli; assay type: cell-based, Escherichia coli
Method: Each of the peptides was diluted by serial 2-fold dilutions in M9 minimal media in Corning (3879) 96-well plates (Sigma-Aldrich, Israel). E. coli bacteria (ATCC 25922) were grown overnight in M9 minimal media and diluted 1,000-fold in M9 media and grown for 5 h at 37°C. In Corning (3596) 96-well plates, 75-μl volumes of the serial 2-fold dilutions of each test compound were added to 75 μl of growth medium containing bacteria (5 × 10̂^6 CFU/ml). Bacteria and test compounds were incubated overnight at 37°C, and kinetic growth inhibition was determined by measurements of optical density at 600 nm using a Biotek Synergy HT microplate reader.

[3] = test system: Candida albicans (SC5341); assay: FITC uptake assay (membrane permeabilization); assay type: cell-based; details: C. albicans 2 × 10^7 cells per ml, 10 mM sodium phosphate buffer pH 7.4, 250 μg/ml peptide, 6 h at 30°C; no-peptide control 1%
Method: This assay was adapted from a previously reported method ([53]). Candida albicans (SC5341) cells were suspended (2 × 10^7 cells per ml) in 10 mM sodium phosphate buffer (pH 7.4) and treated with each of the peptides for 6 h at 30°C. Samples were then incubated with 6 μg/ml FITC (the stock solution is 10 mg/ml in acetone) plus 10 mM sodium phosphate buffer at 30°C for 30 min. A 10-μl volume of each sample was plated on an individual glass slide, and the slides were then washed with 10 mM sodium phosphate buffer thrice and examined using an Eclipse E600 fluorescence microscope (Nikon, Japan). The results presented are representative of three independent experiments.

[4] = Lipid/PDA vesicle fluorescent chromatic response, DOPE-containing model membrane; details: DOPE/DMPG/ErgS/PDA SUVs; peptide 1 mg/ml stock, Tris-base buffer pH 8.0, 27°C, %FCR
Method: (§1) Vesicles containing the diacetylene monomer 10,12-tricosadiynoic acid (TRCDA) and the lipid and ergosterol components DOPC/DMPG/ErgS/PDA and DOPE/DMPG/ErgS/PDA (1:0.6:0.4:3) were dissolved in chloroform/ethanol (1:1) and dried together in vacuo to reach a constant weight, followed by addition of deionized water to reach a final concentration of 1 mM, and were subsequently subjected to probe sonication at 40 W at 70°C for 3 min. The vesicle solution was subsequently cooled at room temperature and kept at 4°C overnight. The solution was then irradiated at 254 nm for 30s, resulting in intense blue color appearance due to polymerization of the diacethylene units.
(§2) Fluorescence was measured on a Fluscan Ascent microplate reader using a 96-well microplate (Grainer), excitation at 485 nm and emission at 555 nm, and long-pass (LP) filters with normal slits. The background fluorescence from the vesicles alone was negligible. Samples were prepared for fluorescence measurements by adding 30 μl of each of the peptides at 1 mg/ml to 30 μl of lipid/PDA vesicles followed by addition of 30 μl 50 mM Tris-base buffer (pH = 8.0). The samples were incubated at 27°C during the measurements. […]

[5] = Lipid/PDA vesicle fluorescent chromatic response, DOPC-containing model membrane; details: DOPC/DMPG/ErgS/PDA SUVs; peptide 1 mg/ml stock, Tris-base buffer pH 8.0, 27°C, %FCR
Method: as §1, §2

[6] = kinetic growth inhibition, OD600

Sequence | self-assembly / morphology of assemblies (TEM) [1] | antibacterial activity, fold more active than dhvar2 (S. epidermidis; [6]) | peptide concentration that completely inhibited growth (S. epidermidis; serial 2-fold dilutions, OD600, representative of three experiments) | antibacterial activity, fold more active than dhvar2 [2, 6] | peptide concentration that completely inhibited growth ([2]; serial 2-fold dilutions, 37°C, OD600, representative of three experiments) | FITC positive fluorescence (membrane permeabilization) [3] | fluorescent chromatic response, fold lower than that to L7F [4] | colorimetric response, fold lower than that to L7F [5]
KRLFKEFLFSLRKY [L7F, single-amino-acid mutation L7F of dhvar2 (…), self-assembling derivative] | long, unbranched nanoassemblies | 2 fold | 250 µg/mL | 4 fold | 125 µg/mL | 95% |  | 
KRLFKELLFSLRKY [dhvar2, well-characterized histatin 5 derivative, …, reference compound] | no ordered assemblies |  |  |  |  | 95% | 2 fold | 2 fold
